The structures appear in SMILES notation. Where two headings read alike, the source gives them in different places. Some results are limits rather than exact numbers.

Results on 19 compounds are retold here after patent US20160296499A1, “Spiroindoline Antiparasitic Derivatives” (ZOETIS SERVICES LLC, priority 2013, published 2016).

For experiment [1], the system named is Dirofilaria immitis microfilariae. As to the kind of experiment: Dirofilaria immitis, Microfilariae (DiMF) In Vitro Assay. The note with it: Dirofilaria immitis.
In the next experiment the test system is Haemonchus contortus L3. As to the kind of experiment: Haemonchus contortus, Larvae Stage 3 (HcL3) In Vitro Assay. Conditions: Haemonchus contortus.
The target in experiment [2] is T1, bovine vesicular acetylcholine transporter (VAChT) (Bos taurus, UniProt E1BK36).
T1 sequence (E1BK36 1-524): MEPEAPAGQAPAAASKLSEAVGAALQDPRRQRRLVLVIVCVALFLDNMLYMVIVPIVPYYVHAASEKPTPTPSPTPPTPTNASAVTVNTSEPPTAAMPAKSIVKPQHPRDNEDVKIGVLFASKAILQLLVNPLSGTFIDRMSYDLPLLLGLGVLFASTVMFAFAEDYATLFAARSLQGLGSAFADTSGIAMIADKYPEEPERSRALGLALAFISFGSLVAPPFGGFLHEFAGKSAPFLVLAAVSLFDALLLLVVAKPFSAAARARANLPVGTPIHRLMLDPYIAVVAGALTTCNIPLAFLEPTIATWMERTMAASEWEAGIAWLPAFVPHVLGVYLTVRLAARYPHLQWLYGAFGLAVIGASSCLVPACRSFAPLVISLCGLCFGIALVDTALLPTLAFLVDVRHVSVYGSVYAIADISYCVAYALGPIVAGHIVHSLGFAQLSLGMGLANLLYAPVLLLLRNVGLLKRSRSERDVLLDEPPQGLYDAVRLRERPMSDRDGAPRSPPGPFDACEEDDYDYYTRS
As to the kind of experiment: Radioligand Binding Assay. The note with it: Bovine binding Ki, CHO-K1 membranes with recombinant bovine VAChT, [3H]Compound X6 0.3 nM.
Experimental: To measure binding affinity, CHO-K1 cells recombinantly expressing the bovine VAChT was generated as a stable cell line and subsequently used to produce membrane preparations.
Radioligand binding assays were conducted in disposable polypropylene 96-well plates. VAChT competition assays were initiated by the addition of bovine recombinant membrane homogenate (50 μg/well) in assay buffer (50 mM Tris-HCl, 120 mM NaCl, 5 mM KCl, 1 mM MgCl, and 2 mM CaCl, pH 7.4) containing [^3H]Compound X6 (0.3 nM) with or without competing ligand. The assay was allowed to equilibrate for 120 minutes at room temperature, before being filtered onto GF/C unifilter plates pre-coated in 0.3% polyethylenimine (Perkin Elmer Life and Analytical Sciences, Boston, Mass.) with a Filtermate 96 harvester (PerkinElmer Life and Analytical Sciences). Filters were washed in ice-cold 50 mM Tris-HCl, pH 7.4 buffer and then counted for radioactivity in a TopCount microplate scintillation counter after addition of 50 μL Microscint 20 (PerkinElmer). Non-specific binding was measured in the presence of 10 μM Compound X6. Apparent dissociation constants (Ki values) from the competition experiments were calculated using an iterative nonlinear regression curve-fitting program (GraphPAD Prism 6.0 Software, San Diego, Calif.) and are reported in Table 2.

The mark [3] stands for this setting: 72 h, read-out: Di MF, MEC, decrease in microfilariae motility by visual assessment, curve starting at 100 μM.
Setting [4] is: 96 h, read-out: HcL3 MEC, Minimal Effective Concentration whereby worm motility is inhibited by approximately 70%, 37° C., tested 0.001-100 μM.
Where [5] appears, read: 96 hours, 37° C., read-out: HcL3 MEC.

As usually defined, the Ki is the dissociation constant of the complex between target and ligand, obtained from inhibition or displacement. As to `O=C(NCc1ccnc(F)c1)N1CC2(CCN(C/C=C/c3ccc(Cl)cc3)CC2)c2cc(Cl)c(F)cc21` [Example 71, (E)-5-chloro-1′-(3-(4-chlorophenyl)allyl)-6-fluoro-N-((2-fluoropyridin-4-yl)methyl)spiro[indoline-3,4′-piperidine]-1-carboxamide], the minimal effective concentration (in experiment [1] (setting [3]); in the experiment on Haemonchus contortus L3 (setting [4])) was 3.3 µM each time. Also, in experiment [2], the Ki was found to be 0.0314 µM.

In the case of `Cn1ncc2c3c(ccc21)N(C(=O)NCc1ccnc(Cl)c1)CC31CCN(C/C=C/c2ccc(F)cc2)CC1` [Example 52, (E)-N-((2-chloropyridin-4-yl)methyl)-1-(3-(4-fluorophenyl)allyl)-3′-methyl-3′H-spiro[piperidine-4,8′-pyrrolo[3,2-e]indazole]-6′(7′H)-carboxamide], the minimal effective concentration in experiment [1] (setting [3]) was 10 µM; with Haemonchus contortus L3 (setting [4]), greater than 100 µM. In experiment [2], the Ki is 0.778 µM.

Consider `O=C(NCc1ccnc(Cl)c1)N1CC2(CCN(C/C=C/c3ccc(Cl)cc3)CC2)c2c(Br)cccc21` [Example 156, (E)-4-bromo-1′-(3-(4-chlorophenyl)allyl)-N-((2-chloropyridin-4-yl)methyl)spiro[indoline-3,4′-piperidine]-1-carboxamide], for which the minimal effective concentration in experiment [1] (setting [3]) is 5.7 µM; in the experiment on Haemonchus contortus L3 (setting [4]), 7.8 µM. Moreover, the Ki in experiment [2] amounted to 0.0715 µM.

On to `O=C(NCc1ccnc(F)c1)N1CC2(CCN(C/C=C/c3ccc(Cl)cc3)CC2)c2ccc(OC(F)(F)F)cc21` [Example 127, (E)-1′-(3-(4-chlorophenyl)allyl)-N-((2-fluoropyridin-4-yl)methyl)-6-(trifluoromethoxy)spiro[indoline-3,4′-piperidine]-1-carboxamide], for which the minimal effective concentration came out at 10 µM in experiment [1] (setting [3]) and 1 µM with Haemonchus contortus L3 (setting [4]). Besides, the Ki in experiment [2] came out at 0.0784 µM.

In the case of `O=C(NCc1ccnc(Cl)c1)N1CC2(CCN(C/C=C/c3ccc(Cl)cc3)CC2)c2cc(C(F)(F)F)ccc21` [Example 160, (E)-1′-(3-(4-chlorophenyl)allyl)-N-((2-chloropyridin-4-yl)methyl)-5-(trifluoromethyl)spiro[indoline-3,4′-piperidine]-1-carboxamide], the minimal effective concentration was 10 µM in experiment [1] (72 hours, read-out: Di MF) and 10 µM in the experiment with Haemonchus contortus L3 (setting [5]). For the same compound, the Ki in experiment [2] was determined as 0.226 µM.

Consider `N#Cc1cc2c(cc1C(F)(F)F)N(C(=O)NCc1ccnc(Cl)c1)CC21CCN(C/C=C/c2ccc(Cl)c(Cl)c2)CC1` [Example 132, (E)-N-((2-chloropyridin-4-yl)methyl)-5-cyano-1′-(3-(3,4-dichlorophenyl)allyl)-6-(trifluoromethyl)spiro[indoline-3,4′-piperidine]-1-carboxamide], for which the minimal effective concentration in experiment [1] (72 hours, read-out: Di MF) worked out at 3.3 µM; in the experiment with Haemonchus contortus L3 (setting [5]), 3.3 µM. In experiment [2], the Ki stood at 0.0499 µM.

With `O=C(NCc1ccnc(Cl)c1)N1CC2(CCN(C/C=C/c3ccc(F)cc3)CC2)c2c1ccc1scnc21` [Example 38, (E)-N-((2-chloropyridin-4-yl)methyl)-1-(3-(4-fluorophenyl)allyl)spiro[piperidine-4,8′-thiazolo[4,5-e]indole]-6′(7′H)-carboxamide], the minimal effective concentration is 3.3 µM in experiment [1] (setting [3]) and 10 µM in the experiment on Haemonchus contortus L3 (setting [4]). For the same compound, the Ki in experiment [2] is 0.0456 µM.

For `O=C(NCc1ccnc(Cl)c1)N1CC2(CCN(C/C=C/c3ccc(Cl)cc3)CC2)c2c(OC(F)(F)F)cccc21` [Example 88, (E)-1′-(3-(4-chlorophenyl)allyl)-N-((2-chloropyridin-4-yl)methyl)-4-(trifluoromethoxy)spiro[indoline-3,4′-piperidine]-1-carboxamide], the minimal effective concentration in experiment [1] (setting [3]) is 3.3 µM; with Haemonchus contortus L3 (setting [4]), 100 µM. Besides, the Ki in experiment [2] is 1.13 µM.

For the compound `O=C(NCc1ccnc(Cl)c1)N1CC2(CCN(C/C=C/c3ccc(F)cc3)CC2)c2c(OC(F)(F)F)cccc21` [Example 174, (E)-N-((2-chloropyridin-4-yl)methyl)-1′-(3-(4-fluorophenyl)allyl)-4-(trifluoromethoxy)spiro[indoline-3,4′-piperidine]-1-carboxamide], the minimal effective concentration in experiment [1] (setting [3]) was 4.4 µM; in the experiment on Haemonchus contortus L3 (setting [4]), 100 µM. Further, the Ki in experiment [2] is 1.5 µM.

As to `O=C(NCc1ccnc(F)c1)N1CC2(CCN(C/C=C/c3ccc(Cl)cc3)CC2)c2c1cccc2C(F)(F)F` [Example 92, (E)-1′-(3-(4-chlorophenyl)allyl)-N-((2-fluoropyridin-4-yl)methyl)-4-(trifluoromethyl)spiro[indoline-3,4′-piperidine]-1-carboxamide], the minimal effective concentration (in experiment [1] (setting [3]); in the experiment on Haemonchus contortus L3 (setting [4])) was 5 µM throughout. In addition, the Ki in experiment [2] stood at 0.796 µM.

As to `O=C(NCc1ccnc(Cl)c1)N1CC2(CCN(C/C=C/c3ccc(Cl)cc3)CC2)c2cc(Cl)c(Cl)cc21` [Example 142, (E)-5,6-dichloro-1′-(3-(4-chlorophenyl)allyl)-N-((2-chloropyridin-4-yl)methyl)spiro[indoline-3,4′-piperidine]-1-carboxamide], the minimal effective concentration in experiment [1] (72 hours, read-out: Di MF) was 7.6 µM; with Haemonchus contortus L3 (setting [5]), 3.3 µM. Moreover, the Ki in experiment [2] came out at 0.107 µM.

For `O=C(NCc1ccc([N+](=O)[O-])cc1)N1CC2(CCN(C/C=C/c3ccc(Cl)c(Cl)c3)CC2)c2c1ccc1scnc21` [Example 17, (E)-1-(3-(3,4-dichlorophenyl)allyl)-N-(4-nitrobenzyl)spiro[piperidine-4,8′-thiazolo[4,5-e]indole]-6′(7′H)-carboxamide], the values for the minimal effective concentration (in experiment [1] (setting [3]); in the experiment with Haemonchus contortus L3 (setting [4])) were 10 µM and 100 µM, respectively. Also, the Ki in experiment [2] stood at 11.6 µM.

For the compound `O=C(NCc1ccnc(Cl)c1)N1CC2(CCN(C/C=C/c3ccc(Cl)c(Cl)c3)CC2)c2cc(F)c(C(F)(F)F)cc21` [Example 129, (E)-N-((2-chloropyridin-4-yl)methyl)-1′-(3-(3,4-dichlorophenyl)allyl)-5-fluoro-6-(trifluoromethyl)spiro[indoline-3,4′-piperidine]-1-carboxamide], the minimal effective concentration was found to be 10 µM in experiment [1] (72 hours, read-out: Di MF) and 1.5 µM in the experiment with Haemonchus contortus L3 (setting [5]). The Ki in experiment [2] came out at 0.0328 µM.

For `Cc1noc(C)c1-c1ccc2c(c1)C1(CCN(C/C=C/c3ccc(Cl)cc3)CC1)CN2C(=O)NCc1ccnc(-c2c(C)noc2C)c1` [Example 186, (E)-1′-(3-(4-chlorophenyl)allyl)-5-(3,5-dimethylisoxazol-4-yl)-N-((2-(3,5-dimethylisoxazol-4-yl)pyridin-4-yl)methyl)spiro[indoline-3,4′-piperidine]-1-carboxamide], the minimal effective concentration in experiment [1] (setting [3]) was determined as 3.3 µM; in the experiment with Haemonchus contortus L3 (setting [4]) it was 100 µM. In experiment [2], the Ki came out at 1.36 µM.

As for `O=C(NCc1ccnc(F)c1)N1CC2(CCN(C/C=C/c3ccc(Cl)cc3)CC2)c2cc(C3CC3)ccc21` [Example 84, (E)-1′-(3-(4-chlorophenyl)allyl)-5-cyclopropyl-N-((2-fluoropyridin-4-yl)methyl)spiro[indoline-3,4′-piperidine]-1-carboxamide], the minimal effective concentration in experiment [1] (72 hours, read-out: Di MF) was 3.3 µM; in the experiment on Haemonchus contortus L3 (setting [5]), 100 µM. In addition, the Ki in experiment [2] is 0.68 µM.

Consider `O=C(NCc1ccnc(F)c1)N1CC2(CCN(C/C=C/c3ccc(Cl)cc3)CC2)c2c(-c3ccccc3)cccc21` [Example 91, (E)-1′-(3-(4-chlorophenyl)allyl)-N-((2-fluoropyridin-4-yl)methyl)-4-phenylspiro[indoline-3,4′-piperidine]-1-carboxamide], for which the minimal effective concentration in experiment [1] (setting [3]) was 3.3 µM; with Haemonchus contortus L3 (setting [4]), 100 µM. The Ki in experiment [2] was 0.295 µM.

In the case of `CN(C)c1ccc2c(c1)C1(CCN(C/C=C/c3ccc(Cl)c(Cl)c3)CC1)CN2C(=O)NCc1ccnc(Cl)c1` [Example 137, (E)-N-((2-chloropyridin-4-yl)methyl)-1′-(3-(3,4-dichlorophenyl)allyl)-5-(dimethylamino)spiro[indoline-3,4′-piperidine]-1-carboxamide], the minimal effective concentration in experiment [1] (setting [3]) is 10 µM; with Haemonchus contortus L3 (setting [4]), 3.3 µM. Besides, the Ki in experiment [2] amounted to 0.516 µM.

Regarding `COc1cc(CNC(=O)N2CC3(CCN(C/C=C/c4ccc(C(F)(F)F)cc4)CC3)c3cc(Cl)ccc32)ccn1` [Example 183, (E)-5-chloro-N-((2-methoxypyridin-4-yl)methyl)-1′-(3-(4-(trifluoromethyl)phenyl)allyl)spiro[indoline-3,4′-piperidine]-1-carboxamide], the minimal effective concentration turned out to be 3.3 µM in experiment [1] (setting [3]) and 10 µM in the experiment on Haemonchus contortus L3 (setting [4]). Moreover, the Ki in experiment [2] came to 0.184 µM.

In the case of `N#Cc1ccc(-c2ccc3c(c2)C2(CCN(C/C=C/c4ccc(Cl)c(Cl)c4)CC2)CN3C(=O)NCc2ccnc(F)c2)cn1` [Example 116, 5-(6-cyano-3-pyridyl)-1′-[(E)-3-(3,4-dichlorophenyl)allyl]-N-[(2-fluoro-4-pyridyl)methyl]spiro[indoline-3,4′-piperidine]-1-carboxamide], the minimal effective concentration turned out to be 4 µM in experiment [1] (setting [3]) and 5 µM with Haemonchus contortus L3 (setting [4]). Moreover, the Ki in experiment [2] came to 0.0585 µM.
